In publication PMC11237612, “Mutation of the peptide-regulated transcription factor ComR for amidated peptide specificity and heterologous function in Lactiplantibacillus plantarum WCFS1” (Microbiology Spectrum, 2024):

System: S. thermophilus ComR containing five mutations (R92G, V205A, S248G, S289K, and I290T)
Experiment: GFP signal in E. coli expressing five-mutation ComR
Type: cell-based
Settings: 100 µM peptide, GFP signal (Fig. S3)
From the text: The selection of mutant ComRs with altered specificity highlighted the utility of the screening system built in E. coli. We attempted to further validate this screening system by cloning a version of S. thermophilus ComR containing five mutations (R92G, V205A, S248G, S289K, and I290T), which was reported to have altered specificity for the 8 amino-acid long XIP from S. vestibularis (VPFFMIYY) ([20]).
ComR sensor circuits were constructed on plasmid pACYC184 (American Type Culture Collection #37033) such that ComR activation promoted GFP expression. This was done by assembling synthetic dsDNA fragments (Integrated DNA Technology) using NEBuilder® HiFi DNA Assembly Master Mix (NEB, E2621S). The full sequence of plasmid pAC-J23107*-ComR, on which the ComR mutant library was made is included in supplemental materials. The ComR mutant (K100NNK) library was created by PCR amplifying all but the K100 codon and then assembling it with degenerate oligos (Integrated DNA Technology) using NEBuilder® HiFi DNA Assembly Master Mix (NEB, E2621S). […] Bacteria were incubated in a large radius shaker (Eppendorf S441) at 37°C for 9 hours, then GFP fluorescence was read using a TECAN Spark 20M plate reader. […]

VPFFMIYY [S. vestibularis XIP, 8 amino-acid long XIP from S. vestibularis (VPFFMIYY)]
GFP signal of five-mutation ComR with S. vestibularis XIP: only a slight increase in GFP signal
